Test results as given in patent US20250188110A1, “SPECIFIC SMALL MOLECULE INHIBITORS THAT BLOCK KMT9 METHYLTRANSFERASE ACTIVITY AND FUNCTION” (ALBERT-LUDWIGS-UNIVERSITÄT FREIBURG, priority 2021, published 2025).

Columns and labels:
KMT9 [1] = target: T1, KMT9 (Homo sapiens, UniProt Q9Y5N5); assay: KMT9 thermal shift assay (SyproOrange); type: binding; conditions: 500 µM compound, 2 μM KMT9; read-out: Thermal shift (ΔTm)
T1 sequence (Q9Y5N5 1-214): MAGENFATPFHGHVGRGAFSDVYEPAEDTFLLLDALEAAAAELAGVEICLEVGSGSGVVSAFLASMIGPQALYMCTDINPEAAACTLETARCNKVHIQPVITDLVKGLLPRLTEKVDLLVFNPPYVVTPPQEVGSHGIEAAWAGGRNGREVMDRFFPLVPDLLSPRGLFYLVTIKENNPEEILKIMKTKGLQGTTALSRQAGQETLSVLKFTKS
T1 sequence (Q9UI30 1-120 isoform Q9UI30-2 partner): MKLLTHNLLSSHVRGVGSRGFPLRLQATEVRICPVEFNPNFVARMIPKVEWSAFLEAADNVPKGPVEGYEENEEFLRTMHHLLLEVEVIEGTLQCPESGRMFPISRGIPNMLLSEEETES
In short: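 ΔTm versus DMSO-only control is reported in bins (>20 K, 15–20 K, 10–15 K, ≤10 K), using Tm from Boltzmann sigmoidal fits of SyproOrange melt curves. KMT9 with compound in pH 8.5 BTP buffer containing MgCl2 and DTT was preincubated at 25° C, then ramped 1° C per 15 s up to 95° C.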

KMT9 [2] = target: T1, KMT9; assay: KMT9 methyltransferase inhibition assay, MTaseGlo luminescence (from entry 155); type: biochemical; conditions: MTaseGlo procedure (entries from 155); 100 nM KMT9, 5 μM ETF1, 1 μM SAM; read-out: Inhibition (IC50)
In short: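 KMT9 (100 nM final) pre-incubated with inhibitor for 15 min at room temperature, then reacted with 5 μM ETF1 and 1 μM SAM for 2 h at 30° C. at 2% DMSO final. MTaseGlo luminescence read after 60 min detection; IC50 reported in four potency bins.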

KMT9 [3] = target: T1, KMT9; assay: Microscale thermophoresis (MST) KMT9 binding; conditions: His-tag labelled KMT9 20 nM; read-out: MST (Kd)
In short: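 Kd from microscale thermophoresis: compound series against 20 nM His-KMT9 labelled via RED-Tris-NTA, buffer 25 mM HEPES (pH 7.5)/100 mM NaCl/1 mM DTT/0.05% Tween, 40% MST power, 100% LED. Reported as classes: A ≤10 nM, B >10–100 nM, C >100–1000 nM, D >1000 nM.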

COc1cc([C@H]2C[C@@H](n3ccc4c(N)nc(Cl)nc43)[C@H](O)[C@@H]2O)ccn1 [Compound 663, (1R,2S,3R,5R)-3-{4-Amino-2-chloropyrrolo[2,3-d]pyrimidin-7-yl}-5-(2-methoxypyridin-4-yl)cyclopentane-1,2-diol]
ΔTm at 500 µM (KMT9 [1]): ≤ 10 °C | IC50 (KMT9 [2]): 100 to 1000 nM | Kd (KMT9 [3]): 10 to 100 nM

COc1cc(OC)cc([C@H]2C[C@@H](n3ccc4c(N)nc(Cl)nc43)[C@H](O)[C@@H]2O)c1 [Compound 664, (1R,2S,3R,5R)-3-{4-Amino-2-chloropyrrolo[2,3-d]pyrimidin-7-yl]-5-(3,5-dimethoxyphenyl)cyclopentane-1,2-diol]
ΔTm at 500 µM (KMT9 [1]): 10 to 15 °C | IC50 (KMT9 [2]): 100 to 1000 nM | Kd (KMT9 [3]): 10 to 100 nM

COc1cc(CN)cc([C@H]2C[C@@H](n3ccc4c(N)nc(Cl)nc43)[C@H](O)[C@@H]2O)c1 [Compound 665, (1R,2S,3R,5R)-3-(4-amino-2-chloro-7H-pyrrolo[2,3-d]pyrimidin-7-yl)-5-(3-(aminomethyl)-5-methoxyphenyl)cyclopentane-1,2-diol]
ΔTm at 500 µM (KMT9 [1]): 15 to 20 °C | IC50 (KMT9 [2]): 100 to 1000 nM | Kd (KMT9 [3]): ≤ 10 nM

COc1cc(Br)cc([C@H]2C[C@@H](n3ccc4c(N)nc(Cl)nc43)[C@H](O)[C@@H]2O)c1 [Compound 666, (1R,2S,3R,5R)-3-(4-amino-2-chloro-7H-pyrrolo[2,3-d]pyrimidin-7-yl)-5-(3-bromo-5-methoxyphenyl)cyclopentane-1,2-diol]
ΔTm at 500 µM (KMT9 [1]): 10 to 15 °C | IC50 (KMT9 [2]): 100 to 1000 nM | Kd (KMT9 [3]): 10 to 100 nM

COc1cc(-c2cnsc2)cc([C@H]2C[C@@H](n3ccc4c(N)nc(Cl)nc43)[C@H](O)[C@@H]2O)c1 [Compound 667, (1R,2S,3R,5R)-3-(4-amino-2-chloro-7H-pyrrolo[2,3-d]pyrimidin-7-yl)-5-(3-(isothiazol-4-yl)-5-methoxyphenyl)cyclopentane-1,2-diol]
ΔTm at 500 µM (KMT9 [1]): 10 to 15 °C | IC50 (KMT9 [2]): 1000 to 10000 nM | Kd (KMT9 [3]): 10 to 100 nM

Nc1nc(Cl)nc2c1ccn2[C@@H]1C[C@H](c2cccc(OC(F)(F)F)c2)[C@@H](O)[C@H]1O [Compound 668, (1R,2S,3R,5R)-3-(4-amino-2-chloro-7H-pyrrolo[2,3-d]pyrimidin-7-yl)-5-(3-(trifluoromethoxy)phenyl)cyclopentane-1,2-diol]
ΔTm at 500 µM (KMT9 [1]): ≤ 10 °C | IC50 (KMT9 [2]): 1000 to 10000 nM | Kd (KMT9 [3]): 100 to 1000 nM

COc1cccc([C@H]2C[C@@H](n3cc(Br)c4c(N)nc(Cl)nc43)[C@H](O)[C@@H]2O)c1 [Compound 669, (1R,2S,3R,5R)-3-(4-amino-5-bromo-2-chloro-7H-pyrrolo[2,3-d]pyrimidin-7-yl)-5-(3-methoxyphenyl)cyclopentane-1,2-diol]
ΔTm at 500 µM (KMT9 [1]): 10 to 15 °C | IC50 (KMT9 [2]): 1000 to 10000 nM | Kd (KMT9 [3]): 10 to 100 nM

COc1cccc([C@H]2C[C@@H](n3ccc4c(N)nc(Cl)nc43)[C@H](O)[C@@H]2O)c1 [Compound 670, (1R,2S,3R,5R)-3-{4-amino-2-chloropyrrolo[2,3-d]pyrimidin-7-yl}-5-(3-methoxyphenyl)cyclopentane-1,2-diol]
ΔTm at 500 µM (KMT9 [1]): 10 to 15 °C | IC50 (KMT9 [2]): 100 to 1000 nM | Kd (KMT9 [3]): ≤ 10 nM

COc1cccc([C@H]2C[C@@H](n3cc(-c4ccn(C)n4)c4c(N)nc(Cl)nc43)[C@H](O)[C@@H]2O)c1 [Compound 671, (1R,2S,3R,5R)-3-(4-amino-2-chloro-5-(1-methyl-1H-pyrazol-3-yl)-7H-pyrrolo[2,3-d]pyrimidin-7-yl)-5-(3-methoxyphenyl)cyclopentane-1,2-diol]
ΔTm at 500 µM (KMT9 [1]): 10 to 15 °C | IC50 (KMT9 [2]): 1000 to 10000 nM | Kd (KMT9 [3]): 10 to 100 nM

Nc1nc(Cl)nc2c1ccn2[C@@H]1C[C@H](c2cccc(CN3CCC3)c2)[C@@H](O)[C@H]1O [Compound 672, (1R,2S,3R,5R)-3-(4-amino-2-chloro-7H-pyrrolo[2,3-d]pyrimidin-7-yl)-5-(3-(azetidin-1-ylmethyl)phenyl)cyclopentane-1,2-diol]
ΔTm at 500 µM (KMT9 [1]): 10 to 15 °C | IC50 (KMT9 [2]): 100 to 1000 nM | Kd (KMT9 [3]): 10 to 100 nM

Nc1nc(Cl)nc2c1c(Br)cn2[C@@H]1C[C@H](c2cccc(CN3CCC3)c2)[C@@H](O)[C@H]1O [Compound 673, (1R,2S,3R,5R)-3-(4-amino-5-bromo-2-chloro-7H-pyrrolo[2,3-d]pyrimidin-7-yl)-5-(3-(azetidin-1-ylmethyl)phenyl)cyclopentane-1,2-diol]
ΔTm at 500 µM (KMT9 [1]): 15 to 20 °C | IC50 (KMT9 [2]): 100 to 1000 nM | Kd (KMT9 [3]): ≤ 10 nM

Cn1ccc(-c2cn([C@@H]3C[C@H](c4cccc(CN5CCC5)c4)[C@@H](O)[C@H]3O)c3nc(Cl)nc(N)c23)n1 [Compound 674, (1R,2S,3R,5R)-3-(4-amino-2-chloro-5-(1-methyl-1H-pyrazol-3-yl)-7H-pyrrolo[2,3-d]pyrimidin-7-yl)-5-(3-(azetidin-1-ylmethyl)phenyl)cyclopentane-1,2-diol]
ΔTm at 500 µM (KMT9 [1]): 15 to 20 °C | IC50 (KMT9 [2]): 100 to 1000 nM | Kd (KMT9 [3]): ≤ 10 nM

Cn1cc(Cl)c(-c2cn([C@@H]3C[C@H](c4cccc(CN5CCC5)c4)[C@@H](O)[C@H]3O)c3nc(Cl)nc(N)c23)n1 [Compound 675, (1R,2S,3R,5R)-3-(4-amino-2-chloro-5-(4-chloro-1-methyl-1H-pyrazol-3-yl)-7H-pyrrolo[2,3-d]pyrimidin-7-yl)-5-(3-(azetidin-1-ylmethyl)phenyl)cyclopentane-1,2-diol]
ΔTm at 500 µM (KMT9 [1]): 15 to 20 °C | IC50 (KMT9 [2]): 100 to 1000 nM | Kd (KMT9 [3]): ≤ 10 nM

Nc1nc(Cl)nc2c1ccn2[C@@H]1C[C@H](c2cccc(OC(F)F)c2)[C@@H](O)[C@H]1O [Compound 676, (1R,2S,3R,5R)-3-{4-amino-2-chloropyrrolo[2,3-d]pyrimidin-7-yl}-5-[3-(difluoromethoxy)phenyl]cyclopentane-1,2-diol]
ΔTm at 500 µM (KMT9 [1]): ≤ 10 °C | IC50 (KMT9 [2]): 1000 to 10000 nM | Kd (KMT9 [3]): 10 to 100 nM

COc1cc(OC)cc([C@H]2C[C@@H](n3cc(Br)c4c(N)nc(Cl)nc43)[C@H](O)[C@@H]2O)c1 [Compound 677, (1R,2S,3R,5R)-3-{4-amino-5-bromo-2-chloropyrrolo[2,3-d]pyrimidin-7-yl}-5-(3,5-dimethoxyphenyl)cyclopentane-1,2-diol]
ΔTm at 500 µM (KMT9 [1]): 10 to 15 °C | IC50 (KMT9 [2]): 1000 to 10000 nM | Kd (KMT9 [3]): 10 to 100 nM

COc1cc(OC)cc([C@H]2C[C@@H](n3cc(-c4ccn(C)n4)c4c(N)nc(Cl)nc43)[C@H](O)[C@@H]2O)c1 [Compound 678, (1R,2S,3R,5R)-3-[4-amino-2-chloro-5-(1-methylpyrazol-3-yl)pyrrolo[2,3-d]pyrimidin-7-yl]-5-(3,5-dimethoxyphenyl)cyclopentane-1,2-diol]
ΔTm at 500 µM (KMT9 [1]): 10 to 15 °C | IC50 (KMT9 [2]): 1000 to 10000 nM | Kd (KMT9 [3]): 100 to 1000 nM

COc1cc(OC)cc([C@H]2C[C@@H](n3cc(-c4ccn(Cc5ccccc5)n4)c4c(N)nc(Cl)nc43)[C@H](O)[C@@H]2O)c1 [Compound 679, (1R,2S,3R,5R)-3-[4-amino-5-(1-benzylpyrazol-3-yl)-2-chloropyrrolo[2,3-d]pyrimidin-7-yl]-5-(3,5-dimethoxyphenyl)cyclopentane-1,2-diol]
ΔTm at 500 µM (KMT9 [1]): ≤ 10 °C | IC50 (KMT9 [2]): 1000 to 10000 nM | Kd (KMT9 [3]): 100 to 1000 nM

COc1cc([C@H]2C[C@@H](n3cc(Br)c4c(N)nc(Cl)nc43)[C@H](O)[C@@H]2O)ccn1 [Compound 680, (1R,2S,3R,5R)-3-(4-amino-5-bromo-2-chloro-7H-pyrrolo[2,3-d]pyrimidin-7-yl)-5-(2-methoxypyridin-4-yl)cyclopentane-1,2-diol]
ΔTm at 500 µM (KMT9 [1]): 10 to 15 °C | IC50 (KMT9 [2]): 100 to 1000 nM | Kd (KMT9 [3]): 10 to 100 nM
